Data published in US20250381168A1, “VLA4 INHIBITORS AND USES THEREOF” (Washington University, priority 2022, published 2025).
Entries after “also recorded” stand apart in the source; their conditions may differ. Like-named read-outs stand apart in the source and are kept apart here.

Tests used:
integrin a4b7 = integrin a4b7 (Homo sapiens (Human), UniProt P13612+P26010); experiment: a4b7 solid phase receptor assay (SPRA); details: recombinant human a4b7 binding to plate-coated human VCAM1 (TABLE 4)
Chain of integrin a4b7 (P13612 34-970): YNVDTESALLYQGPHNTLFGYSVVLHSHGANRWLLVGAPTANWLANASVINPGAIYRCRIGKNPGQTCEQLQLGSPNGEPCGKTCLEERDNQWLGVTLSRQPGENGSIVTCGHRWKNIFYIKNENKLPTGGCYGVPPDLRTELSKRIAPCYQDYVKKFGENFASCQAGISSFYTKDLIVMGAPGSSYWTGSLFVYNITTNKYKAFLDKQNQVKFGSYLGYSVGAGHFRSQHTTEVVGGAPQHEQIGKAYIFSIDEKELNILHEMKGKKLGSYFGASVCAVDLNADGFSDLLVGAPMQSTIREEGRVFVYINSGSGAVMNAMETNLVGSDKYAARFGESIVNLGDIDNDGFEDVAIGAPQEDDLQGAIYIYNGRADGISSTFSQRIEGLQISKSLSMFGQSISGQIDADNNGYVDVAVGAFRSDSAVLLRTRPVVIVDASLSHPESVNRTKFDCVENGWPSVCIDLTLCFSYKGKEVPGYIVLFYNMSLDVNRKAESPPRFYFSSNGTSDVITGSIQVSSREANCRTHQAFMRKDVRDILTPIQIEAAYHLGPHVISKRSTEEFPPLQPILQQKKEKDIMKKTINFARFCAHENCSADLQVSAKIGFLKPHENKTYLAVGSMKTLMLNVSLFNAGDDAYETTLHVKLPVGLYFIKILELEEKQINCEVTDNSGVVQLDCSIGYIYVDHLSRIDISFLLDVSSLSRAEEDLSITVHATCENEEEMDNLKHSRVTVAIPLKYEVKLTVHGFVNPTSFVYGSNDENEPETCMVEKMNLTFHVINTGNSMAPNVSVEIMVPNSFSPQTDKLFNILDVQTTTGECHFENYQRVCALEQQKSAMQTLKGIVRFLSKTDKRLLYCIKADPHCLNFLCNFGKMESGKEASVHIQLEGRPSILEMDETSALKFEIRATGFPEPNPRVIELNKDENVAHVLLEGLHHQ
Chain of integrin a4b7 (P26010 20-723): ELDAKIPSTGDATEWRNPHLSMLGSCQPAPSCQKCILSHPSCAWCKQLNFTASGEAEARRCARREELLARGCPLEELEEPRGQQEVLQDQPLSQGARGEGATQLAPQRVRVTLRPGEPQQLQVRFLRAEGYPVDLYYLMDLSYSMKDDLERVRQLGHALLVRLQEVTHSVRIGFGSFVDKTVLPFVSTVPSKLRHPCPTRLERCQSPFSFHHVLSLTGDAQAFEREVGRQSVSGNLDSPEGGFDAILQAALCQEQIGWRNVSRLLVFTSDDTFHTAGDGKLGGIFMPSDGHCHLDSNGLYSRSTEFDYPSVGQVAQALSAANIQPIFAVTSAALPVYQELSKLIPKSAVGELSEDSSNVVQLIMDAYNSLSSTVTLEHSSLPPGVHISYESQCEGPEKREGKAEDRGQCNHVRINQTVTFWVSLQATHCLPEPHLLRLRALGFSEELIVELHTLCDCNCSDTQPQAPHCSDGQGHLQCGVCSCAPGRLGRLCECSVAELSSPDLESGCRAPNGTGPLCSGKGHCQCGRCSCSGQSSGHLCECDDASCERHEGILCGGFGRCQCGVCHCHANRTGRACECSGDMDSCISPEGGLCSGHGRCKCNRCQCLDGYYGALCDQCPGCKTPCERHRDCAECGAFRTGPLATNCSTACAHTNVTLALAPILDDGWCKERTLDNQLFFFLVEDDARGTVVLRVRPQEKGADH
Protocol: Wells were washed 3 times with TBS+ and blocking buffer (TBS+ with 1% bovine serum albumin), the plate was incubated for 1 hr at 37° C., and then washed 3× with TBS+ buffer. Recombinant human a4b7 (R & D Systems) was diluted to 1 μg/ml in TBS+/0.1% bovine serum albumin. Test compounds were diluted into the integrin solution and added to the washed ligand-coated plate according to a standard template with each sample repeated in triplicate. After incubation for 2 hr at room temperature, the plate was washed 3× with 150 μl of TBS+ buffer. To each well, biotinylated anti-A4 antibody (R & D Systems) at 1 μg/ml in TBS+/0.1% BSA was added and the plate covered and incubated for 1 hr at room temperature. After washing the plate 3× with TBS+ buffer, streptavidin-conjugated horseradish peroxidase (R & D Systems) diluted in TBS+ blocking buffer was added to the wells and the plate incubated for 20 min at room temperature. The plate was washed 3× with TBS+ buffer followed by addition of 50 μl of TMB substrate (Sigma T4444). After incubation for 20 min at room temperature, plates were stopped with TMB stop solution (Sigma S5689) by colorimetric detection at 450 nm wavelength using a Tecan Safire II plate reader.

[1] = system: hematopoietic stem/progenitor cells (HSPCs); experiment: HSPC mobilization into peripheral blood, colony forming unit (CFU) assay; on HSPC mobilization, result in words: test concentration or dose not given here; on No. CFU (×10^3)/mL ± SD, 6 hr: test concentration or dose not given here; details: mice; for No. CFU (x10^3)/mL ± SD, 2 hr: 2 hr post dose (TABLE 11); for No. CFU (x10^3)/mL ± SD, 4 hr: 4 hr post dose (TABLE 11); for No. CFU (x10^3)/mL ± SD, 6 hr: 6 hr post dose (TABLE 11); for No. CFU (x10^3)/mL ± SD, 24 hr: 24 hr post dose (TABLE 11)
VLA-4 (a4b1) = VLA-4 (a4b1) (Homo sapiens (Human), UniProt P05556+P13612); experiment: sVCAM flow cytometry cell-based assay (inhibition of soluble VCAM-1 binding to G2 ALL cells);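 further: compounds at 0.1 to 1000 nM preincubated 30 min with G2 ALL cells, then VCAM/Fc added for 30 min, bound VCAM-1 detected by PE secondary antibody, percent binding cells by flow cytometry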
Chain of VLA-4 (a4b1) (P13612 34-1032): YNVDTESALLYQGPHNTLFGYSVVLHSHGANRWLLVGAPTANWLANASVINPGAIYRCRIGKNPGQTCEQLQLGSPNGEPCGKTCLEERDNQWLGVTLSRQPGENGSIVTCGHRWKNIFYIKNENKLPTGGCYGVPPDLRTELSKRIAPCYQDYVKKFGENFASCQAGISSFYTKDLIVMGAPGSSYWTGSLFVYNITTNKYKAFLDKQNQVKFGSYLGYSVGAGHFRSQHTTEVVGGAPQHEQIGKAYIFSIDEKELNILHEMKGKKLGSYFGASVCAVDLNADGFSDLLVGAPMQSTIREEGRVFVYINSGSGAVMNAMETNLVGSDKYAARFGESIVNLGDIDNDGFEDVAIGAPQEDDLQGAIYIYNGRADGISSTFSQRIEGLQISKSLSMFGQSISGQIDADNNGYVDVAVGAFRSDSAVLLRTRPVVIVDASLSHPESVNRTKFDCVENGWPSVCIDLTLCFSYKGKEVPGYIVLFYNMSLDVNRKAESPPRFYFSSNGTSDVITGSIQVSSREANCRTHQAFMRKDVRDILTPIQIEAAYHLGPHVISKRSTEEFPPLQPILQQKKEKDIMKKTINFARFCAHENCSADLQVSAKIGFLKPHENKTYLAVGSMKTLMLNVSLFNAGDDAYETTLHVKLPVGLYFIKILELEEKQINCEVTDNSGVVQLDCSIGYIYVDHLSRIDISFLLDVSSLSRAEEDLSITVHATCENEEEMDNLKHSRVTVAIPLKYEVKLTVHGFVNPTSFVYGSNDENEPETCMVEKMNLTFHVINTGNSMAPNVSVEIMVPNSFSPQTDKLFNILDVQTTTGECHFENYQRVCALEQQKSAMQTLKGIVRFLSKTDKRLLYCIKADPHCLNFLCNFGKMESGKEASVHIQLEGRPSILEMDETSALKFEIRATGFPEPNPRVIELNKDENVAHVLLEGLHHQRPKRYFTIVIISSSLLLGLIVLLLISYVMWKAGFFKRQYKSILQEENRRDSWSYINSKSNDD
Chain of VLA-4 (a4b1) (P05556 21-798): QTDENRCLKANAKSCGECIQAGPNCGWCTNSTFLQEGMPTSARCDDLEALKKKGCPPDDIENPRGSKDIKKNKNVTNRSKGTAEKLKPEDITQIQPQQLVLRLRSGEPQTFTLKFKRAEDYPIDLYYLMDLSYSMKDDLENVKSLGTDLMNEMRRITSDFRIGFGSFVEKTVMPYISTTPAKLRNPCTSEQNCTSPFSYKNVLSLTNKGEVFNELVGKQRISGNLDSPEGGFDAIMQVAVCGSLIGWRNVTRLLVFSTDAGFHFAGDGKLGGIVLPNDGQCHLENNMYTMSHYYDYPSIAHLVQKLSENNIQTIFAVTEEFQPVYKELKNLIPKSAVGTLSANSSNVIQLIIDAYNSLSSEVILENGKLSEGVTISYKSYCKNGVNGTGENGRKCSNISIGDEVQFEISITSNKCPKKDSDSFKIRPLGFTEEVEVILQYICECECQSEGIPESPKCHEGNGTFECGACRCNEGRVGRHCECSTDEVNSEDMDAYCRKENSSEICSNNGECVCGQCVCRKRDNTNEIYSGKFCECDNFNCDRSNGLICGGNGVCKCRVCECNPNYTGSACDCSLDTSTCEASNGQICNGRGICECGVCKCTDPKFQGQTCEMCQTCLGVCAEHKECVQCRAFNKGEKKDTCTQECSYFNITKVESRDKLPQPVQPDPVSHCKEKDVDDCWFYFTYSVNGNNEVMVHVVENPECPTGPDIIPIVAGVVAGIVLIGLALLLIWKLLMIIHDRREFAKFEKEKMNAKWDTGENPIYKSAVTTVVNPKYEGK
Protocol: VLA-4 (a4b1) inhibitor compounds were tested for their ability to inhibit the binding of soluble VCAM-1 to human G2 acute lymphoblastic leukemia (ALL) cells. Briefly, G2 ALL cells are pre-incubated with increasing concentrations (0.1 to 1000 nM) of compounds for 30 minutes. Soluble VCAM/Fc chimera protein (R & D systems) is then added to the mixture and the cells incubated for an additional 30 minutes. Afterwards, cells are washed and VCAM-1 is detected using a PE-conjugated secondary polyclonal antibody. In each experiment, an aliquot of cells are stained with isotype control antibodies to serve as a negative control. The percentage of VCAM-1 binding cells was then determined by flow cytometry.

[2] = inhibition of sVCAM-1 binding to human G2 ALL cells (TABLE 3), read-out: SVCAM-1, IC50
[3] = as listed in TABLE 11, read-out: sVCAM IC50
[4] = single dose, peripheral blood, 2 hr post dose (TABLE 9)
[5] = single dose, peripheral blood, 4 hr post dose (TABLE 9)
[6] = single dose, peripheral blood, 6 hr post dose (TABLE 9)
[7] = as listed in TABLE 9, read-out: sVCAM IC50

Question: For `Cc1ccccc1NC(=O)Nc1ccc(CC(=O)N(C)[C@@H](CC(C)C)C(=O)NCC[C@H](NC(=O)[C@@H]2CCCN2S(=O)(=O)c2cc(Cl)cc(Cl)c2)C(=O)O)cc1` [BIO5192], which IC50 (integrin a4b7) is on record?
Answer: Its IC50 is greater than 10 µM.

Question: For `COCCOCCOCCOCCOCCOCCOCCOCCOCCOCCOCCOCCOCCOCCOCCOCCOCCOCCOCCOCCOCCOCCOCCOCCn1cc(COCc2cc(OC)c(-c3ccc(C[C@H](NC(=O)[C@@H]4CCCN4S(=O)(=O)c4cc(Cl)cc(Cl)c4)C(=O)O)cc3)c(OC)c2)nn1` [Example C9, (S)-3-(4′-(((1-(2,5,8,11,14,17,20,23,26,29,32,35,38,41,44,47,50,53,56,59,62,65,68,71-tetracosaoxatriheptacontan-73-yl)-1H-1,2,3-triazol-4-yl)methoxy)methyl)-2′,6′-dimethoxy-[1,1′-biphenyl]-4-yl)-2-((S)-1-((3,5-dichlorophenyl)sulfonyl)pyrrolidine-2-carboxamido)propanoic Acid], which “HSPC mobilization, result in words” value ([1]; single dose) is on record?
Answer: The value was “returning to baseline by 4 hours; also recorded: inferior mobilization at 4 hours compared to Example 3”.

Question: What about the “No. CFU (×10^3)/mL ± SD, 0.25 hr” value ([1]; single dose, peripheral blood, 0.25 hr post dose (TABLE 8)) of the same molecule?
Answer: The value was 3.72 ± 1.18 (×10^3)/mL.

Question: And the “No. CFU (×10^3)/mL ± SD, 2 hr” value ([1]; single dose, peripheral blood, 2 hr post dose (TABLE 8))?
Answer: Its value is 3.09 ± 1.06 (×10^3)/mL.

Question: And the “No. CFU (×10^3)/mL ± SD, 4 hr” value ([1]; single dose, peripheral blood, 4 hr post dose (TABLE 8))?
Answer: Its value is 0.57 ± 0.28 (×10^3)/mL.

Question: And the IC50 (VLA-4 (a4b1); as listed in TABLE 8, read-out: sVCAM IC50)?
Answer: The IC50 was 0.579 nM.

Question: And the IC50 (VLA-4 (a4b1); [2])?
Answer: Its IC50 is 0.579 nM.

Question: What does the source list for `COCCOCCOCCOCCOCCOCCOCCOCCOCCOCCOCCOCCOCCOCCOCCOCCOCCOCCOCCOCCOCCOCCOCCOCCSCc1cc(OC)c(-c2ccc(C[C@H](NC(=O)[C@@H]3CCCN3S(=O)(=O)c3cc(Cl)cc(Cl)c3)C(=O)O)cc2)c(OC)c1` [Example 7, (2S)-2-[[(2S)-1-(3,5-dichlorophenyl)sulfonylpyrrolidine-2-carbonyl]amino]-3-[4-[2,6-dimethoxy-4-[2-[2-[2-[2-[2-[2-[2-[2-[2-[2-[2-[2-[2-[2-[2-[2-[2-[2-[2-[2-[2-[2-[2-(2-thiomethylethoxy)ethoxy]ethoxy]ethoxy]ethoxy]ethoxy]ethoxy]ethoxy]ethoxy]ethoxy]ethoxy]ethoxy]ethoxy]ethoxy]ethoxy]ethoxy]ethoxy]ethoxy]ethoxy]ethoxy]ethoxy]ethoxy]ethoxy]ethoxymethyl]phenyl]phenyl]propanoic acid]?
Answer: No. CFU (x10^3)/mL ± SD, 2 hr ([1]; single dose, peripheral blood): 2.53 ± 1.11 (x10^3)/mL; No. CFU (x10^3)/mL ± SD, 4 hr ([1]; single dose, peripheral blood): 3.91 ± 1.44 (x10^3)/mL; No. CFU (x10^3)/mL ± SD, 6 hr ([1]; single dose, peripheral blood): 2.96 ± 1.15 (x10^3)/mL; No. CFU (x10^3)/mL ± SD, 24 hr ([1]; single dose, peripheral blood): 0.15 ± 0.05 (x10^3)/mL; IC50 (VLA-4 (a4b1); [3]): 1.36 nM; IC50 (VLA-4 (a4b1); [2]): 1.36 nM

Question: How did the “HSPC mobilization, result in words” value ([1]; single dose) turn out when `O=C(O)[C@H](Cc1ccc(OC(=O)N2CCCC2)cc1)NC(=O)[C@@H]1CCCN1S(=O)(=O)c1ccccc1` [BOP, (N-benzenesulfonyl)-L-prolyl-L-O-(1-pyrrolidinylcarbonyl)tyrosine] was run?
Answer: The value was “rapid but transient mobilization of HSPCs but are returning to baseline by 2 hours”.

Question: What about the IC50 (VLA-4 (a4b1); as listed in TABLE 13, for the VLA-4 inhibitor alone, read-out: sVCAM IC50) of the same molecule?
Answer: Its IC50 is 47 nM.

Question: What about the IC50 (VLA-4 (a4b1); [2]) of the same molecule?
Answer: The IC50 was 47.1 nM.

Question: What does the source list for `COCCOCCOCCOCCOCCOCCOCCOCCOCc1cc(OC)c(-c2ccc(C[C@H](NC(=O)[C@@H]3CCCN3S(=O)(=O)c3cc(Cl)cc(Cl)c3)C(=O)O)cc2)c(OC)c1` [Example C12, (2S)-2-[[(2S)-1-(3,5-dichlorophenyl)sulfonylpyrrolidine-2-carbonyl]amino]-3-[4-[2,6-dimethoxy-4-[2-[2-[2-[2-[2-[2-[2-(2-methoxyethoxy)ethoxy]ethoxy]ethoxy]ethoxy]ethoxy]ethoxy]ethoxymethyl]phenyl]phenyl]propanoic Acid]?
Answer: time to which HSPC mobilization is extended after a single dose [1]: ≤ 2 h; No. CFU (×10^3)/mL ± SD, 2 hr ([1]; alone or in combination with Plerixafor and tGroβ, peripheral blood, 2 hr (TABLE 17)): 4.02 ± 1.99 (×10^3)/mL; No. CFU (×10^3)/mL ± SD, 4 hr ([1]; alone or in combination with Plerixafor and tGroβ, peripheral blood, 4 hr (TABLE 17)): 0.90 ± 0.61 (×10^3)/mL; No. CFU (×10^3)/mL ± SD, 6 hr ([1]; alone or in combination with Plerixafor and tGroβ, peripheral blood, 6 hr (TABLE 17)): 0.25 ± 0.08 (×10^3)/mL; HSPC mobilization, result in words ([1]; single dose): returning to baseline by 4 hours and clearly at baseline by 6 hours; also recorded: do not provide the same extended mobilization as the 24 PEG unit analogues; No. CFU (×10^3)/mL ± SD, 2 hr [1, 4]: 2.42 ± 1.06 (×10^3)/mL; No. CFU (x10^3)/mL ± SD, 2 hr ([1]; single dose, peripheral blood): 0.78 ± 0.17 (x10^3)/mL; No. CFU (×10^3)/mL ± SD, 4 hr [1, 5]: 1.19 ± 0.53 (×10^3)/mL; No. CFU (x10^3)/mL ± SD, 4 hr ([1]; single dose, peripheral blood): 0.58 ± 0.19 (x10^3)/mL; No. CFU (×10^3)/mL ± SD, 6 hr [1, 6]: 0.24 ± 0.15 (×10^3)/mL; No. CFU (x10^3)/mL ± SD, 6 hr ([1]; single dose, peripheral blood): 0.22 ± 0.10 (x10^3)/mL; No. CFU (x10^3)/mL ± SD, 24 hr ([1]; single dose, peripheral blood): 0.14 ± 0.07 (x10^3)/mL; IC50 (VLA-4 (a4b1); [7]): 0.573 nM; IC50 (VLA-4 (a4b1); [3]): 0.573 nM; IC50 (VLA-4 (a4b1); as listed in TABLE 17, read-out: sVCAM IC50): 0.573 nM; IC50 (VLA-4 (a4b1); [2]): 0.573 nM

Question: With `COCCOCCOCCOCc1cc(OC)c(-c2ccc(C[C@H](NC(=O)[C@@H]3CCCN3S(=O)(=O)c3cc(Cl)cc(Cl)c3)C(=O)O)cc2)c(OC)c1` [Example C7] as the molecule, how does the “HSPC mobilization, result in words” value ([1]; single dose) read?
Answer: The value was “returning to baseline by 4 hours and clearly at baseline by 6 hours”.

Question: What about the “No. CFU (×10^3)/mL ± SD, 2 hr” value [1, 4] of the same molecule?
Answer: The value was 2.65 ± 1.39 (×10^3)/mL.

Question: What about the “No. CFU (×10^3)/mL ± SD, 4 hr” value [1, 5] of the same molecule?
Answer: The value was 0.44 ± 0.17 (×10^3)/mL.

Question: And the “No. CFU (×10^3)/mL ± SD, 6 hr” value [1, 6]?
Answer: Its value is 0.11 ± 0.08 (×10^3)/mL.

Question: What about the “No. CFU (×10^3)/mL ± SD, 0.25 hr” value ([1]; single s.c. injection, peripheral blood, 0.25 hr post dose (TABLE 6)) of the same molecule?
Answer: Its value is 2.57 ± 0.62 (×10^3)/mL.

Question: What about the “No. CFU (×10^3)/mL ± SD, 2 hr” value ([1]; single s.c. injection, peripheral blood, 2 hr post dose (TABLE 6)) of the same molecule?
Answer: Its value is 2.52 ± 0.37 (×10^3)/mL.

Question: What about the “No. CFU (×10^3)/mL ± SD, 4 hr” value ([1]; single s.c. injection, peripheral blood, 4 hr post dose (TABLE 6)) of the same molecule?
Answer: The value was 0.50 ± 0.18 (×10^3)/mL.

Question: And the IC50 (VLA-4 (a4b1); as listed in TABLE 6, read-out: sVCAM IC50)?
Answer: The IC50 was 0.194 nM.

Question: And the IC50 (VLA-4 (a4b1); [7])?
Answer: Its IC50 is 0.194 nM.

Question: And the IC50 (VLA-4 (a4b1); [2])?
Answer: Its IC50 is 0.194 nM.

Question: Which “HSPC mobilization, result in words” value ([1]; single dose) does the source give for `COCCOCCOCCOCCOCCOCCOCCOCCOCCOCCOCCOCCOCCOCCOCCOCCOCc1cc(OC)c(-c2ccc(C[C@H](NC(=O)[C@@H]3CCCN3S(=O)(=O)c3cc(Cl)cc(Cl)c3)C(=O)O)cc2)c(OC)c1` [Example C14, (S)-3-(4′-(2,5,8,11,14,17,20,23,26,29,32,35,38,41,44,47,50-heptadecaoxahenpentacontyl)-2′,6′-dimethoxy-[1,1′-biphenyl]-4-yl)-2-((S)-1-((3,5-dichlorophenyl)sulfonyl)pyrrolidine-2-carboxamido)propanoic Acid] here?
Answer: The value was “returning to baseline by 4 hours and clearly at baseline by 6 hours; also recorded: returning to baseline at 4 hours and affords no mobilization effects at 6 hours”.

Question: And the “No. CFU (×10^3)/mL ± SD, 2 hr” value [1, 4]?
Answer: The value was 3.17 ± 1.17 (×10^3)/mL.

Question: What about the “No. CFU (×10^3)/mL ± SD, 2 hr” value ([1]; single dose, peripheral blood, 2 hr post dose (TABLE 10)) of the same molecule?
Answer: The value was 3.40 ± 1.42 (×10^3)/mL.

Question: And the “No. CFU (×10^3)/mL ± SD, 4 hr” value [1, 5]?
Answer: The value was 0.50 ± 0.25 (×10^3)/mL.

Question: And the “No. CFU (×10^3)/mL ± SD, 4 hr” value ([1]; single dose, peripheral blood, 4 hr post dose (TABLE 10))?
Answer: Its value is 0.82 ± 0.47 (×10^3)/mL.

Question: What about the “No. CFU (×10^3)/mL ± SD, 6 hr” value [1, 6] of the same molecule?
Answer: Its value is 0.08 ± 0.11 (×10^3)/mL.

Question: And the “No. CFU (×10^3)/mL ± SD, 6 hr” value ([1]; single dose, peripheral blood, 6 hr post dose (TABLE 10))?
Answer: The value was 0.25 ± 0.16 (×10^3)/mL.

Question: What about the IC50 (VLA-4 (a4b1); [7]) of the same molecule?
Answer: Its IC50 is 0.702 nM.

Question: What about the IC50 (VLA-4 (a4b1); as listed in TABLE 10, read-out: sVCAM IC50) of the same molecule?
Answer: The IC50 was 0.702 nM.

Question: What about the IC50 (VLA-4 (a4b1); [2]) of the same molecule?
Answer: Its IC50 is 0.702 nM.

Question: For `CN(C)c1ccc2c(c1)c(=O)n(-c1ccc(C[C@H](NC(=O)c3c(Cl)cccc3Cl)C(=O)O)cc1)c(=O)n2C` [Carotegrast], which “No. CFU (×10^3)/mL ± SD, 1 hr” value ([1]; single dose, peripheral blood, 1 hr post dose (TABLE 20)) is on record?
Answer: Its value is 0.58 ± 0.19 (×10^3)/mL.

Question: What about the “No. CFU (×10^3)/mL ± SD, 4 hr” value ([1]; single dose, peripheral blood, 4 hr post dose (TABLE 20)) of the same molecule?
Answer: The value was 0.18 ± 0.08 (×10^3)/mL.

Question: And the “No. CFU (×10^3)/mL ± SD, 8 hr” value ([1]; single dose, peripheral blood, 8 hr post dose (TABLE 20))?
Answer: Its value is 0.19 ± 0.09 (×10^3)/mL.

Question: And the IC50 (VLA-4 (a4b1); as listed in TABLE 20, read-out: sVCAM IC50)?
Answer: The IC50 was 118 nM.

Question: And the IC50 (VLA-4 (a4b1); [2])?
Answer: Its IC50 is 118 nM.
